The target in one experiment is T1, PIPLC (Staphylococcus aureus, UniProt P45723).
T1 construct: endogenous in cells; host or cells: 19 Staphylococcus aureus ATCC strains (e.g. ATCC 9144, ATCC 49775) growing in culture medium
As to the kind of experiment: PIPLC activity of Staphylococcus aureus strains in microplates with two fluorogenic PIPLC substrates. On the set-up: key to PIPLC activity: +: strains permitting the production of fluorescence at least twice that of the background noise; −: a signal emitted by the medium that is less than the background noise. The note with it: microplate, 24 hours at 37° C.; for number of strains that display PIPLC activity in the presence of the substrate: among the nineteen strains of Staphylococcus aureus ATCC tested; for PIPLC activity: substrate 0.4 g/l (4-methylumbelliferyl) or 0.2 g/l (3-chloro) in medium derived from OAA. It is filed as cell-based. Here is the method:
19 strains of Staphylococcus aureus ATCC are tested for their PIPLC activity in microplates. The tests are performed with two different fluorogenic substrates of PIPLC: 4-methylumbelliferyl-myo-inositol-1-phosphate and 3-chloro-7-hydroxy-4-methylcoumarin myo-inositol-phosphate, added at different concentrations to the constituents of the medium derived from the OAA medium described in example 1.
The strains tested, at an initial concentration of 10^8 (CFU)/ml, are diluted in a tryptone salt broth, so as to obtain a final concentration at 10^3 CFU/ml.
10 μl of this bacterial suspension is added to 200 μl of culture medium. Each strain was incubated for 24 hours at 37° C. with each of the media in the microplate reader marketed by the company TECAN under the name GENios™.
The + signs correspond to the strains permitting the production of fluorescence at least twice that of the background noise, The − signs correspond to a signal emitted by the medium that is less than the background noise.

For another experiment, the system named is PC-PLC (lecithinase). The note with it: strains ATCC 33592 and ATCC 700699, 10 CFU per well; 0.4 g/l substrate, pH 7.2, 37° C., 72h, versus uninoculated control medium (FIG. 1).

T1 sequence (P45723 27-312): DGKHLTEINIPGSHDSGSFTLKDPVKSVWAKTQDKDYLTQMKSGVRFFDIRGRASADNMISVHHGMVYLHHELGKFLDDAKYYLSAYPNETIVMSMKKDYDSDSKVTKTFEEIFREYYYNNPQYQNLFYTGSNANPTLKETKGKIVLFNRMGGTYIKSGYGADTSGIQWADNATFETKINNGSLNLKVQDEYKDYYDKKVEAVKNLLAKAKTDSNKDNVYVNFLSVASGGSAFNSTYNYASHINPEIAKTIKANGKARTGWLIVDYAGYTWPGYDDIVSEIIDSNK
Procedure for PC-PLC (lecithinase): The dynamics of the PC-PLC activity of two strains of Staphylococcus aureus ATCC 33592 and ATCC 700699 was evaluated in microplates in the presence of the medium given below. Reading of the appearance of fluorescence in each of the various wells of the microplate was then carried out in kinetic conditions.
The medium used is of the following composition, pH 7.2:
10 CFU of Staphylococcus aureus ATCC 33592 and ATCC 700699 were inoculated in the wells of the microplate in the presence of the medium described above. The microplate was then incubated at 37° C. in a TECAN reader to evaluate the PC-PLC activity of the two strains of Staphylococcus aureus in the form of the kinetics of hydrolysis of the 4MU-CP substrate, i.e. appearance of fluorescence.
Measurement of the appearance of fluorescence following hydrolysis of the 4MU-CP substrate was carried out over an incubation time of 72h for the two strains of Staphylococcus aureus tested (STA ATCC 33592 and STA ATCC 700699) versus the uninoculated control medium (baseline).

In the case of `Cc1c(Cl)c(=O)oc2cc(OP(=O)([O-])OC3C(O)C(O)C(O)C(O)C3O)ccc12.[Li+]` (centres unmarked) [3-Chloro-7-hydroxy-4-methylcoumarin myo-inositol-1-phosphate], at PIPLC, the “number of strains that display PIPLC activity in the presence of the substrate” value stood at 18. Also, the PIPLC activity entry on PIPLC (strain ATCC 6538), on PIPLC (strain ATCC 9144), at PIPLC (strain ATCC 12598), at PIPLC (strain ATCC 13150), at PIPLC (strain ATCC 29213) and on PIPLC (strain ATCC 33591) was “+ (strains permitting the production of fluorescence at least twice that of the background noise)” in each case. In addition, the PIPLC activity result at PIPLC (strain ATCC 33592) is recorded as “+ (strains permitting the production of fluorescence at least twice that of the background noise)”; at PIPLC (strain ATCC 33593) it was “+ (strains permitting the production of fluorescence at least twice that of the background noise)”; at PIPLC (strain ATCC 33862), “+ (strains permitting the production of fluorescence at least twice that of the background noise)”; on PIPLC (strain ATCC 43300), “+ (strains permitting the production of fluorescence at least twice that of the background noise)”; on PIPLC (strain ATCC 43866), “+ (strains permitting the production of fluorescence at least twice that of the background noise)”; at PIPLC (strain ATCC 49775), “−”. Also, the PIPLC activity entry on PIPLC (strain ATCC 51153), on PIPLC (strain ATCC 51740), on PIPLC (strain ATCC 700698), at PIPLC (strain ATCC 700699), at PIPLC (strain ATCC 700788) and at PIPLC (strain ATCC 700789) was “+ (strains permitting the production of fluorescence at least twice that of the background noise)” each time. On PIPLC (strain CCM 6188), the PIPLC activity result is given as “+ (strains permitting the production of fluorescence at least twice that of the background noise)”.

In the case of `Cc1cc(=O)oc2cc(OP(=O)(O)OC3C(O)C(O)C(O)C(O)C3O)ccc12` (centres unmarked) [4-Methylumbelliferyl myo-inositol-1-phosphate], the “number of strains that display PIPLC activity in the presence of the substrate” value on PIPLC is on record as 17. In addition, the PIPLC activity result at PIPLC (strain ATCC 6538), on PIPLC (strain ATCC 9144), on PIPLC (strain ATCC 12598), on PIPLC (strain ATCC 13150), on PIPLC (strain ATCC 29213) and on PIPLC (strain ATCC 33591) was “+ (strains permitting the production of fluorescence at least twice that of the background noise)” in each case. Also, the PIPLC activity result at PIPLC (strain ATCC 33592) is recorded as “+ (strains permitting the production of fluorescence at least twice that of the background noise)”; on PIPLC (strain ATCC 33593) it was “+ (strains permitting the production of fluorescence at least twice that of the background noise)”; on PIPLC (strain ATCC 33862), “+ (strains permitting the production of fluorescence at least twice that of the background noise)”; at PIPLC (strain ATCC 43300), “+ (strains permitting the production of fluorescence at least twice that of the background noise)”; on PIPLC (strain ATCC 43866), “+ (strains permitting the production of fluorescence at least twice that of the background noise)”; on PIPLC (strain ATCC 49775), “−”. Besides, the PIPLC activity result at PIPLC (strain ATCC 51153), at PIPLC (strain ATCC 51740), at PIPLC (strain ATCC 700698), at PIPLC (strain ATCC 700699), at PIPLC (strain ATCC 700788) and at PIPLC (strain ATCC 700789) was “+ (strains permitting the production of fluorescence at least twice that of the background noise)” each time. In addition, at PIPLC (strain CCM 6188), the PIPLC activity entry was “−”.

For the compound `Cc1cc(=O)oc2cc(OP(=O)([O-])OCC[N+](C)(C)C)ccc12` [4MU-CP, 4-Methylumbelliferyl choline-phosphate], the “detection of Staphylococcus aureus by hydrolysis of the fluorogenic PC-PLC substrate (appearance of fluorescence)” value in the experiment with PC-PLC (lecithinase) is “permits the detection and discrimination of Staphylococcus aureus”.

These data come from US20110129871A1, “CULTURE MEDIUM ENABLING STAPHYLOCOCCUS AUREUS TO BE DIFFERENTIATED FROM COAGULASE-NEGATIVE STAPHYLOCOCCI” (priority 2008, published 2011).
